Experimental data from PMC6440977, “Nucleoside analogue activators of cyclic AMP-independent protein kinase A of Trypanosoma” (Nature Communications, 2019).
Values joined by “and” are separate entries in the source; they are usually repeats but may differ in a detail not shown here. Identical values can stand only once. Like-named read-outs stand apart in the source and are kept apart here.

How the values were obtained:
[1] = tested on: T. brucei phosphoproteome; assay: Quantitative phosphoproteomics; type: cell-based, Trypanosoma brucei
Protocol: For each sample, 6 × 10^8 T. brucei cells treated or not with 8 µM 7-cyano-7-deazainosine for 15 min were lysed in 300 µl 4% (w/v) sodium deoxycholate, 0.1 M Tris, pH 8.5 for 5 min at 95 °C (according to the protocol of Humphrey et al.[78]). Samples were sonicated using a Bioruptor (Diagenode) (high power, two cycles of 10 min each, 30 s on/off). Protein concentration was determined by BCA protein assay and samples were adjusted to equal concentrations. Sample preparation and mass spectrometry were exactly carried out as described by Humphrey et al.[78]. MaxQuant 1.5.2.8[79] was used to identify proteins and quantify by LFQ with the following parameters: Database, TriTrypDB-39_TbruceiTREU927_AnnotatedProteins; MS tol, 10 ppm; MS/MS tol, 0.5 Da; Peptide FDR, 0.1; Protein FDR, 0.01 Min. peptide Length, 5; Variable modifications, Oxidation (M), Phosphorylation (STY); Fixed modifications, Carbamidomethyl (C); Peptides for protein quantitation, razor and unique; Min. peptides, 1; Min. ratio count, 2. For proteomic analysis, identified proteins were considered as statistically significant with FDR ≤ 0.05 and s0 = 1 (two-sided Student’s T-test adjusted for multiple comparisons by Benjamini–Hochberg correction, Perseus[80]). […] The mass spectrometry phosphoproteomics data have been deposited to the ProteomeExchange Consortium via the PRIDE partner repository (https://www.ebi.ac.uk/pride/archive) with the dataset identifier PXD012245. GO enrichment analysis was performed in TriTrypDB with default settings and visualized in Revigo (http://revigo.irb.hr). The motif discovery tool MoMo (using the motif-x algorithm) implemented in the MEME suite (http://meme-suite.org/) was used for unbiased motif discovery in the phosphoproteome dataset with the T. brucei TriTrypDB-40_TbruceiTREU927 protein database as background. Enriched sequence logos were visualized using CLC Main Workbench 7 (https://www.qiagenbioinformatics.com/).

human PKARIα = target: T1, human PKARIα (Homo sapiens, UniProt P10644); assay: Binding by isothermal titration calorimetry (ITC)
T1 construct: The full length ORFs (amplified with primers introducing the respective); 6xHis followed by TEV site (N); made in house; host or cells: E. coli Rosetta D3

T. brucei PKA = T. brucei PKA (Trypanosoma brucei brucei, UniProt Q9GU80); assay: In vivo PKA reporter assay (VASP Ser-157 phosphorylation, western blot); type: cell-based;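 note: T. brucei cells expressing human VASP as heterologous PKA substrate, compound exposure at 37 °C, western blot of phospho (50 kDa) versus unphosphorylated (46 kDa) VASP band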
[2] = tested on: T. brucei ∆pkar/∆pkar (pkar KO) cells; assay: microbe, parasite or virus in culture; type: cell-based, Trypanosoma brucei; conditions: Trypanosoma brucei
metacaspase 4 (MCA4) = type: cell-based, Trypanosoma brucei; conditions: for MCA4 counts / MCA4 normalized / MCA4 fold change: 4 µM; for MCA4 normalized: normalized to PFR-A/C; for MCA4 fold change: untreated WT set to 1
[3] = target: T. brucei PKAR-PKAC1 holoenzyme (Trypanosoma brucei, UniProt Q9GU80); assay: biochemical; type: biochemical; conditions: for In vitro kinase assay: technical replicates
T. brucei PKAR(199–499) = T. brucei PKAR(199–499) (Trypanosoma brucei, UniProt Q9GU80); assay: biochemical; type: binding; set-up: Thermodynamics (ITC) -TΔS / Thermodynamics (ITC) ΔG / Thermodynamics (ITC) ΔH: unit: kcal/mol
T. brucei BSF cells (WT) = assay: Alamar blue cell viability assay, wild type;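 note: trypanosomes seeded at 5×10^3 per ml and grown 72 h with compound, then resazurin 0.5 mM added for 4 h as the viability read-out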
[4] = treated (Act) vs control (Crtl), significant, FDR ≤ 0.05, s0=2, 4 replicates

Sequence of T. brucei PKAR-PKAC1 holoenzyme (Q38DR5 entry or part of it): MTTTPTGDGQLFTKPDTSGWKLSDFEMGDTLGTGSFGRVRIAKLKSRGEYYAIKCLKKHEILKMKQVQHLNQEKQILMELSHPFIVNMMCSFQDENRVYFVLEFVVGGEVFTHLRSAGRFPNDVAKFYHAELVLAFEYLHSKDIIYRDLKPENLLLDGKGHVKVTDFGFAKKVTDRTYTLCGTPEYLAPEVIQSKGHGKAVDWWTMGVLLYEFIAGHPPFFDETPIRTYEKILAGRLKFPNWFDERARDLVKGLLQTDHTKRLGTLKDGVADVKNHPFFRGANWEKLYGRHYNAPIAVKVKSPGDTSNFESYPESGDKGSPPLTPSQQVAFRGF
Sequence of T. brucei PKAR-PKAC1 holoenzyme (Q9GU80 entry or part of it): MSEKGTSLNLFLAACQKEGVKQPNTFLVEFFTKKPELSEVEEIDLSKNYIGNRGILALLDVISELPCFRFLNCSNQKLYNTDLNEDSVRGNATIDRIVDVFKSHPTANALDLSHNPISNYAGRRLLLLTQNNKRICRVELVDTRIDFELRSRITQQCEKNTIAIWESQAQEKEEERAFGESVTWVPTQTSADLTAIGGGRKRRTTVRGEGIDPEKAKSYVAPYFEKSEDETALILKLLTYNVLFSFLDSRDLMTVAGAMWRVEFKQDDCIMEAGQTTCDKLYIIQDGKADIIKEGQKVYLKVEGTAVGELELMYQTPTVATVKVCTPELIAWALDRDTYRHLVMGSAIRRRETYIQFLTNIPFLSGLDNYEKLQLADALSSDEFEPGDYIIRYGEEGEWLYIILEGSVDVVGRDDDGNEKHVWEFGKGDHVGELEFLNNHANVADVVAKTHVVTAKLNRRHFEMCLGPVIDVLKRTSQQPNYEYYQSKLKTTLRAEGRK
Sequence of T. brucei PKAR(199–499) (Q9GU80 entry or part of it): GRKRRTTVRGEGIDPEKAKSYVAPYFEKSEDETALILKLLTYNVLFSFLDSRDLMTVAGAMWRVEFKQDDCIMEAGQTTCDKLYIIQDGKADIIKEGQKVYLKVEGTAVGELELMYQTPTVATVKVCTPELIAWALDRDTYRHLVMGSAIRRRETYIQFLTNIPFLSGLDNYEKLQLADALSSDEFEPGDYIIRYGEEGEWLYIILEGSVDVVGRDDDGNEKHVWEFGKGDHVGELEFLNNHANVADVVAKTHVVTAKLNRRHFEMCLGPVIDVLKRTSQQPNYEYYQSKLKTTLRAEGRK
Sequence of T. brucei PKA (Q38DS1 entry or part of it): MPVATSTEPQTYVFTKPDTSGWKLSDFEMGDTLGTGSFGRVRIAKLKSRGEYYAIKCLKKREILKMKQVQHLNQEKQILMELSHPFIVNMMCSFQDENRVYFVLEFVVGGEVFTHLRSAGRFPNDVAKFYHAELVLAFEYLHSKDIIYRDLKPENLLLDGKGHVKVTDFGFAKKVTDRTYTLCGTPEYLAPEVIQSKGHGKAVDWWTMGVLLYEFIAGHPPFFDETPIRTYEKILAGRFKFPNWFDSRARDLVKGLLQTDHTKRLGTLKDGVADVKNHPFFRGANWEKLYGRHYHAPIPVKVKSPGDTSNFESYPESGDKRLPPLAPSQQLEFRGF
Sequence of T. brucei PKA (Q38DR5 entry or part of it, further chain): as the sequence (Q38DR5 entry or part of it) above
T1 sequence (P10644 whole entry): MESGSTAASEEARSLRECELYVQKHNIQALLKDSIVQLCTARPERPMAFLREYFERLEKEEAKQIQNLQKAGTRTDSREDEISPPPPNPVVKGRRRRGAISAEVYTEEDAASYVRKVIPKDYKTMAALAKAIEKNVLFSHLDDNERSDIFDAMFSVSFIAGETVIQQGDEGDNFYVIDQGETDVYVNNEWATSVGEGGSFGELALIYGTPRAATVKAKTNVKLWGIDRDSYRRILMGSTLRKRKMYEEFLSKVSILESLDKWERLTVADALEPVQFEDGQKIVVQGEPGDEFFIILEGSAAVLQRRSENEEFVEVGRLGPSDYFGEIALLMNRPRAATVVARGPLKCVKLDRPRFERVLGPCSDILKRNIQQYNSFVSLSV

N#Cc1cn([C@@H]2O[C@H](CO)[C@@H](O)[C@H]2O)c2ncnc(O)c12 [7-CN-7-C-Ino, 7-Cyano-7-deazainosine]
downregulated phosphosites (number) ([1]; 8 µM, 15 min): 84
downregulated phosphosites containing PKA motifs ([1]; 8 µM, 15 min): 19%
upregulated phosphosites containing PKA motifs ([1]; 8 µM, 15 min): 77%
significantly upregulated phosphosites (number) ([1]; 8 µM, 15 min, FDR ≤ 0.05, s0 = 2): 642
Difference, phosphopeptide Tb11.v5.1036.1 gamma-tubulin complex subunit, putative, S120 [1, 4]: 3.988
Difference, phosphopeptide Tb927.10.630 hypothetical protein, conserved, S331 [1, 4]: 2.868
Difference, phosphopeptide Tb927.10.8410 hypothetical protein, conserved, S234 [1, 4]: 2.478
binding to purified human PKARIα, in words (human PKARIα): did not bind
VASP phosphorylation in PKAC3 deletion + PKAC1/2 RNAi cell line, in words (T. brucei PKA; 4 µM, 15 min): undetectable
EC50 (T. brucei PKA; read-out: EC50 in vivo PKA assay, VASP reporter, 15 min treatment, mean ± SD): 0.838 ± 0.139 µM
IC50 ([2]; 72 h, read-out: IC50 growth pkar KO): ≥ 125 µM
EC50 ([2]; read-out: EC50, Alamar blue cell viability assay, KO, individual replicate results, pkar KO cells, fit ambiguous, bound given in µM): > 125 µM
Western quantification, KO + Ino (metacaspase 4 (MCA4); KO cells + Ino, normalized to PFR, WT set to 1, individual replicates, protein not given): 0.3769 and 0.643 and 0.8892
Western quantification, WT + Ino (metacaspase 4 (MCA4); WT cells + Ino, normalized to PFR, WT set to 1, individual replicates, protein not given): 3.707 and 4.121 and 2.558
MCA4 counts (metacaspase 4 (MCA4); WT, 12 h): 9.21
MCA4 normalized (metacaspase 4 (MCA4); WT, 12 h): 5.616
MCA4 fold change (metacaspase 4 (MCA4); WT, 12 h): 0.3804
MCA4 counts (metacaspase 4 (MCA4); WT, 18 h): 7.41
MCA4 normalized (metacaspase 4 (MCA4); WT, 18 h): 5.37
MCA4 fold change (metacaspase 4 (MCA4); WT, 18 h): 0.3637
MCA4 counts (metacaspase 4 (MCA4); WT, 24 h): 7.18
MCA4 normalized (metacaspase 4 (MCA4); WT, 24 h): 4.603
MCA4 fold change (metacaspase 4 (MCA4); WT, 24 h): 0.3117
MCA4 counts (metacaspase 4 (MCA4); pkar KO, 12 h): 8.83
MCA4 normalized (metacaspase 4 (MCA4); pkar KO, 12 h): 0.3995
MCA4 fold change (metacaspase 4 (MCA4); pkar KO, 12 h): 0.8235
MCA4 counts (metacaspase 4 (MCA4); pkar KO, 18 h): 9.5
MCA4 normalized (metacaspase 4 (MCA4); pkar KO, 18 h): 0.5278
MCA4 fold change (metacaspase 4 (MCA4); pkar KO, 18 h): 1.088
MCA4 counts (metacaspase 4 (MCA4); pkar KO, 24 h): 10.63
MCA4 normalized (metacaspase 4 (MCA4); pkar KO, 24 h): 0.3562
MCA4 fold change (metacaspase 4 (MCA4); pkar KO, 24 h): 0.7342
MCA4 abundance, in words (metacaspase 4 (MCA4); wild type, 12 h post induction): decreased
In vitro kinase assay ([3]; 0.00014 µM): 0.05 U/ml and 0.04 U/ml (2×)
In vitro kinase assay ([3]; 0.00041 µM): 0.05 U/ml
In vitro kinase assay ([3]; 0.00123 µM): 0.08 U/ml and 0.07 U/ml (2×)
In vitro kinase assay ([3]; 0.0037 µM): 0.12 U/ml
In vitro kinase assay ([3]; 0.01111 µM): 0.16 U/ml (2×) and 0.18 U/ml
In vitro kinase assay ([3]; 0.03333 µM): 0.2 U/ml and 0.19 U/ml (2×)
In vitro kinase assay ([3]; 0.1 µM): 0.18 U/ml and 0.17 U/ml and 0.19 U/ml
In vitro kinase assay ([3]; 0.3 µM): 0.17 U/ml and 0.2 U/ml and 0.16 U/ml
higher activation potency on purified holoenzyme compared to Toyo ([3]; ratio of EC50): 36 fold
Kd (T. brucei PKAR(199–499); 298 K, mean ± SD, n=3, read-out: KD in vitro binding to PKAR (ITC)): 0.008 ± 0.002 µM
−TΔS (entropic component of binding) (T. brucei PKAR(199–499); ITC, mean): -2.3 kcal/mol
Thermodynamics (ITC) -TΔS (T. brucei PKAR(199–499); independent replicates): -2.82 and -2.13 and -1.91
Thermodynamics (ITC) ΔG (T. brucei PKAR(199–499); independent replicates): -11.3 and -10.9 and -11
Thermodynamics (ITC) ΔH (T. brucei PKAR(199–499); independent replicates): -8.48 and -8.8 and -9.1
Molar ratio of binding (ITC) (T. brucei PKAR(199–499); ligand to protein, mean ± SD, n=3): 2 ± 0.2
higher binding affinity to PKAR compared to Toyo (T. brucei PKAR(199–499); ratio of KD): 7 fold
increase of EC50 for cell viability compared to Toyo (T. brucei BSF cells (WT)): > 170 fold
IC50 (T. brucei BSF cells (WT); Trypanosoma brucei, 72 h, read-out: IC50 growth WT): ≥ 125 µM
EC50 (T. brucei BSF cells (WT); Trypanosoma brucei, read-out: EC50, Alamar blue cell viability assay, WT, individual replicate results, wild type cells, fit ambiguous, bound given in µM): > 125 µM
effect on growth or viability, in words (T. brucei BSF cells (WT); continuous treatment): does not produce these PKA-independent effects
